According to patent US11186564B2, “Dual NAV1.2/5HT2a inhibitors for treating CNS disorders” (Sunovion Pharmaceuticals Inc., priority 2016, dated 2021):
Like-named read-outs stand apart in the source and are kept apart here.

Target: T1, recombinant human serotonin receptor 5-HT2A (Homo sapiens, UniProt P28223)
T1 construct: expressed in transfected cells; method B: loaded with Ca2+ dye
Test: 5-HT2A antagonist Ca2+ assay in CHO-K1 cells (method A aequorin luminescence / method B FLIPR fluorescence)
Type: cell-based
Settings: antagonist mode vs EC80 of reference agonist, method A or B
Procedure, shortened: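 IC50 was obtained by nonlinear regression of percent inhibition of the EC80 agonist Ca2+ response in CHO-K1 cells stably expressing human 5-HT2A. The readout was aequorin luminescence with agonist injected 15 min after compound (A), or Ca2+-dye fluorescence on FLIPR with serotonin as agonist (B).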

T1 sequence (P28223 whole entry): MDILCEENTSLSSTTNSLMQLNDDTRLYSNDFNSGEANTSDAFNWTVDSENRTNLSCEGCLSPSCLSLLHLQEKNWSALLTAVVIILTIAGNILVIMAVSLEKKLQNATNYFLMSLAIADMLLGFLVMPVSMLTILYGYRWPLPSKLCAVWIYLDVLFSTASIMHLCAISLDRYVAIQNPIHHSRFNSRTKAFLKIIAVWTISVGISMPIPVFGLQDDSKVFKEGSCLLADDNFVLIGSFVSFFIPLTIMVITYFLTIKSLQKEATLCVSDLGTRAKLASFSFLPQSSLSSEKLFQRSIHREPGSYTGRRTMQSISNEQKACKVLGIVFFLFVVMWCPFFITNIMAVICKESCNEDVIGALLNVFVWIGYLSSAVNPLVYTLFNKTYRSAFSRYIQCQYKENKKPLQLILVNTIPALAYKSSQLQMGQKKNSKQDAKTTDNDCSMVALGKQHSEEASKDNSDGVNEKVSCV

Structure (SMILES) | IC50 (read-out: 5HT2A IC50) [µM] | IC50 (5HT2A IC50, μM) [µM]
Fc1ccc(OC2COCCN(CC3Cc4cccnc4C3)C2)cc1 (centres unmarked) [Example 279, 4-((6,7-dihydro-5H-cyclopenta[b]pyridin-6-yl)methyl)-6-(4-fluorophenoxy)-1,4-oxazepane] | > 10 | –
O=C1c2ccccc2CCN1CCN1CCCCC(Oc2ccc(F)cc2)C1 (centres unmarked) [Example 280, 2-(2-(3-(4-fluorophenoxy)azepan-1-yl)ethyl)-3,4-dihydroisoquinolin-1(2H)-one] | 4.89 | –
O[C@H](COC1CCCCC1)CN1[C@@H]2CC[C@H]1CN(c1ccc(F)cc1)C2 [Example 289, (S)-1-(cyclohexyloxy)-3-((1R,5S)-3-(4-fluorophenyl)-3,8-diazabicyclo[3.2.1]octan-8-yl)propan-2-ol] | – | 0.02
O[C@@H](COC1CCCCC1)CN1[C@@H]2CC[C@H]1CN(c1ccc(F)cc1)C2 [Example 290, (R)-1-(cyclohexyloxy)-3-((1R,5S)-3-(4-fluorophenyl)-3,8-diazabicyclo[3.2.1]octan-8-yl)propan-2-ol] | – | 0.002
O[C@@H](COC1CCCCC1)CN1[C@@H]2CC[C@H]1CN(c1nccs1)C2 [Example 291, (R)-1-(cyclohexyloxy)-3-((1R,5S)-3-(thiazol-2-yl)-3,8-diazabicyclo[3.2.1]octan-8-yl)propan-2-ol] | > 10 | –
O[C@H](COC1CCCCC1)CN1[C@@H]2CC[C@H]1CN(c1nccs1)C2 [Example 292, (S)-1-(cyclohexyloxy)-3-((1R,5S)-3-(thiazol-2-yl)-3,8-diazabicyclo[3.2.1]octan-8-yl)propan-2-ol] | > 10 | –
c1ccc(N2[C@@H]3C[C@H]2CN(CC2CCc4ccccc42)C3)cc1 (stereo partly drawn) [Example 293, (1R,5S)-3-((2,3-dihydro-1H-inden-1-yl)methyl)-6-phenyl-3,6-diazabicyclo[3.1.1]heptane] | 1.02 | –
COc1ccc2c(c1)C(CN1C[C@H]3CC[C@@H](C1)N3c1ccccc1)CC2 (stereo partly drawn) [Example 296, (1R,5S)-3-((6-methoxy-2,3-dihydro-1H-inden-1-yl)methyl)-8-phenyl-3,8-diazabicyclo[3.2.1]octane] | > 10 | –
c1ccc(CCN2C[C@H]3CC[C@@H](C2)N3c2ccccc2)cc1 [Example 298, (1R,5S)-3-phenethyl-8-phenyl-3,8-diazabicyclo[3.2.1]octane] | > 11 | –
O[C@H](COC1CCCCC1)CN1C[C@H]2CC[C@@H](C1)N2c1ccccc1 [Example 300, (S)-1-(cyclohexyloxy)-3-((1R,5S)-8-phenyl-3,8-diazabicyclo[3.2.1]octan-3-yl)propan-2-ol] | > 10 | –
O[C@@H](COC1CCCCC1)CN1C[C@H]2CC[C@@H](C1)N2c1ccccc1 [Example 301, (R)-1-(cyclohexyloxy)-3-((1R,5S)-8-phenyl-3,8-diazabicyclo[3.2.1]octan-3-yl)propan-2-ol] | > 10 | –
OC(COc1ccccc1)CN1C[C@H]2CC[C@@H](C1)N2c1ccccc1 (stereo partly drawn) [Example 302, 1-phenoxy-3-((1R,5S)-8-phenyl-3,8-diazabicyclo[3.2.1]octan-3-yl)propan-2-ol] | > 2.7 | –
c1ccc(CCN2C[C@@H]3C[C@H]2CN3c2ccccc2)cc1 [Example 305, (1S,4S)-2-phenethyl-5-phenyl-2,5-diazabicyclo[2.2.1]heptane] | > 14.5 | –
OC(COc1ccccc1)CN1C[C@@H]2C[C@H]1CN2c1ccccc1 (stereo partly drawn) [Example 307, 1-phenoxy-3-((1S,4S)-5-phenyl-2,5-diazabicyclo[2.2.1]heptan-2-yl)propan-2-ol] | 10.4 | –
c1ccc(N2C[C@@H]3C[C@H]2CCN3CC2Cc3cccnc3C2)cc1 (stereo partly drawn) [Example 320, 6-(((1S,5R)-6-phenyl-2,6-diazabicyclo[3.2.1]octan-2-yl)methyl)-6,7-dihydro-5H-cyclopenta[b]pyridine] | > 10 | –
c1ccc(N2C[C@@H]3C[C@H]2CCN3CC2Cc3ccncc3C2)cc1 (stereo partly drawn) [Example 321, 6-(((1S,5R)-6-phenyl-2,6-diazabicyclo[3.2.1]octan-2-yl)methyl)-6,7-dihydro-5H-cyclopenta[c]pyridine] | > 10 | –
c1ccc(N2C[C@@H]3C[C@H]2CCN3CC2COCc3ccccc32)cc1 (stereo partly drawn) [Example 322, (1S,5R)-2-(isochroman-4-ylmethyl)-6-phenyl-2,6-diazabicyclo[3.2.1]octane] | > 3.16 | –
c1ccc(N2C[C@@H]3C[C@H]2CCN3CCC2CCc3cccnc32)cc1 (stereo partly drawn) [Example 323, 7-(2-((1S,5R)-6-phenyl-2,6-diazabicyclo[3.2.1]octan-2-yl)ethyl)-6,7-dihydro-5H-cyclopenta[b]pyridine] | > 3.16 | –
O=C1c2ccccc2CCN1CCN1CC[C@@H]2C[C@H]1CN2c1ccccc1 [Example 324, 2-(2-((1S,5R)-6-phenyl-2,6-diazabicyclo[3.2.1]octan-2-yl)ethyl)-3,4-dihydroisoquinolin-1(2H)-one] | > 3.16 | –
O[C@H](COC1CCCCC1)CN1CC[C@@H]2C[C@H]1CN2c1ccccc1 [Example 326, (S)-1-(cyclohexyloxy)-3-((1S,5R)-6-phenyl-2,6-diazabicyclo[3.2.1]octan-2-yl)propan-2-ol] | > 3.16 | –
O[C@@H](COC1CCCCC1)CN1CC[C@@H]2C[C@H]1CN2c1ccccc1 [Example 327, (R)-1-(cyclohexyloxy)-3-((1S,5R)-6-phenyl-2,6-diazabicyclo[3.2.1]octan-2-yl)propan-2-ol] | > 3.16 | –

Structure (SMILES) | IC50 (read-out: 5HT2A IC50) [µM] | IC50 (5HT2A IC50, μM) [µM]
c1ccc(CCN2C[C@@H]3C[C@H](C2)N(c2ccccc2)C3)cc1 [Example 330, (1S,5R)-3-phenethyl-6-phenyl-3,6-diazabicyclo[3.2.1]octane] | > 16.7 | –
O[C@@H](COC1CCCCC1)CN1C[C@@H]2C[C@H](C1)N(c1ccccc1)C2 [Example 332, (R)-1-(cyclohexyloxy)-3-((1S,5R)-6-phenyl-3,6-diazabicyclo[3.2.1]octan-3-yl)propan-2-ol] | > 16.7 | –
O[C@H](COC1CCCCC1)CN1C[C@@H]2C[C@H](C1)N(c1ccccc1)C2 [Example 333, (S)-1-(cyclohexyloxy)-3-((1S,5R)-6-phenyl-3,6-diazabicyclo[3.2.1]octan-3-yl)propan-2-ol] | > 16.7 | –
OC(COc1ccccc1)CN1C[C@@H]2C[C@H](C1)N(c1ccccc1)C2 (stereo partly drawn) [Example 334, 1-phenoxy-3-((1S,5R)-6-phenyl-3,6-diazabicyclo[3.2.1]octan-3-yl)propan-2-ol] | > 16.7 | –
COc1ccccc1N1CCC2(CCN(CC3CCc4cccnc43)C2)C1 (centres unmarked) [Example 336, 2-((6,7-dihydro-5H-cyclopenta[b]pyridin-7-yl)methyl)-7-(2-methoxyphenyl)-2,7-diazaspiro[4.4]nonane] | 3.28 | –
COc1ccccc1N1CCC2(CCN(CC3Cc4cccnc4C3)C2)C1 (centres unmarked) [Example 338, 2-((6,7-dihydro-5H-cyclopenta[b]pyridin-6-yl)methyl)-7-(2-methoxyphenyl)-2,7-diazaspiro[4.4]nonane] | > 10 | –
Fc1ccc(N2CCC3(CCN(CC4Cc5ccncc5C4)C3)C2)cc1 (centres unmarked) [Example 341, 2-((6,7-dihydro-5H-cyclopenta[c]pyridin-6-yl)methyl)-7-(4-fluorophenyl)-2,7-diazaspiro[4.4]nonane] | 3.12 | –
COc1ccccc1CN1CCC2(CCN(c3ccccc3)C2)C1 (centres unmarked) [Example 342, 2-(2-methoxybenzyl)-7-phenyl-2,7-diazaspiro[4.4]nonane] | 2.08 | –
COc1cccc(CN2CCC3(CCN(c4ccccc4)C3)C2)c1 (centres unmarked) [Example 343, 2-(3-methoxybenzyl)-7-phenyl-2,7-diazaspiro[4.4]nonane] | 2.46 | –
OC(COC1CCCCC1)CN1CCC2(CCCN2c2ccccc2)C1 (centres unmarked) [Example 348, 1-(cyclohexyloxy)-3-(1-phenyl-1,7-diazaspiro[4.4]nonan-7-yl)propan-2-ol] | 7.34 | –
OC(COC1CCCCC1)CN1CCCC12CCN(c1ccccc1)C2 (centres unmarked) [Example 349, 1-(cyclohexyloxy)-3-(7-phenyl-1,7-diazaspiro[4.4]nonan-1-yl)propan-2-ol] | > 16.7 | –
OC(COC1CCCCC1)CN1CCC2(CCCN(c3ccccc3)C2)C1 (centres unmarked) [Example 351, 1-(cyclohexyloxy)-3-(7-phenyl-2,7-diazaspiro[4.5]decan-2-yl)propan-2-ol] | > 16.7 | –
OC(COc1ccccc1)CN1CCCC12CCN(c1ccccc1)CC2 (centres unmarked) [Example 352, 1-phenoxy-3-(8-phenyl-1,8-diazaspiro[4.5]decan-1-yl)propan-2-ol] | > 5.3 | –
OC(COC1CCCCC1)CN1CCCC12CCCN(c1ccccc1)C2 (centres unmarked) [Example 353, 1-(cyclohexyloxy)-3-(7-phenyl-1,7-diazaspiro[4.5]decan-1-yl)propan-2-ol] | > 16.7 | –
OC(COC1CCCCC1)CN1CCC2(CC1)CCN(c1ccccc1)C2 (centres unmarked) [Example 354, 1-(cyclohexyloxy)-3-(2-phenyl-2,8-diazaspiro[4.5]decan-8-yl)propan-2-ol] | 1.94 | –
OC(COC1CCCCC1)CN1CCC2(CCCN2c2ccccc2)CC1 (centres unmarked) [Example 355, 1-(cyclohexyloxy)-3-(1-phenyl-1,8-diazaspiro[4.5]decan-8-yl)propan-2-ol] | > 16.7 | –
O[C@H](COC1CCCCC1)CN1CC2(CC(Oc3ccccc3)CO2)C1 (stereo partly drawn) [Example 371, (2S)-1-(cyclohexyloxy)-3-(7-phenoxy-5-oxa-2-azaspiro[3.4]octan-2-yl)propan-2-ol] | 0.09 | –
O[C@@H](COC1CCCCC1)CN1CC2(CC(Oc3ccccc3)CO2)C1 (stereo partly drawn) [Example 372, (2R)-1-(cyclohexyloxy)-3-(7-phenoxy-5-oxa-2-azaspiro[3.4]octan-2-yl)propan-2-ol] | 0.09 | –
O=C1CC2(CN(CC3CCc4ccccc43)C2)Oc2ccccc21 (centres unmarked) [Example 386, 1-((2,3-dihydro-1H-inden-1-yl)methyl)spiro[azetidine-3,2′-chroman]-4′-one] | 3.76 | –
OC(COC1CCCCC1)CN1CCC2(CC1)COc1ccccc12 (centres unmarked) [Example 389, 1-(cyclohexyloxy)-3-(2H-spiro[benzofuran-3,4′-piperidin]-1′-yl)propan-2-ol] | – | 8.58
